{"source": "paper PMC10991509", "about": "“A phase I study of ATR inhibitor gartisertib (M4344) as a single agent and in combination with carboplatin in patients with advanced solid tumours” (British Journal of Cancer, 2024)", "key": {"UGT1A1 [1]": {"target": "T1, UGT1A1 (Homo sapiens, UniProt P22309)", "T1 construct": "from tissue; host or cells: human liver microsomes", "T1 sequence (P22309 26-533)": "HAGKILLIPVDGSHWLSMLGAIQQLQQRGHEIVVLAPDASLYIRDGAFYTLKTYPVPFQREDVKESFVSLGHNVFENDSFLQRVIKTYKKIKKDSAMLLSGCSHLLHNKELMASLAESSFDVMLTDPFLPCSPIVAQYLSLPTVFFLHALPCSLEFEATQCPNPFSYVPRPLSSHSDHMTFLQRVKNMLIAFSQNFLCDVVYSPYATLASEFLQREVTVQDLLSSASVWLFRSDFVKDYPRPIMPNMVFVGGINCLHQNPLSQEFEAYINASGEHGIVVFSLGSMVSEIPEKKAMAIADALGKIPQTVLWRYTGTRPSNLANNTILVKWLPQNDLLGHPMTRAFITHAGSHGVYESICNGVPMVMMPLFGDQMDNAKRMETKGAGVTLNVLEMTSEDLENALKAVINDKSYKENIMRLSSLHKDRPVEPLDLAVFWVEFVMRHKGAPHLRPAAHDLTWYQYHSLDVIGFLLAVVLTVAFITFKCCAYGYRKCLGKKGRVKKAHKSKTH", "experiment": "UGT1A1 inhibition in human liver microsomes", "type": "in vitro ADME", "details": "value (standard error)"}, "UGT1A1 [2]": {"target": "T2, UGT1A1 (Rattus norvegicus, UniProt Q64550)", "T2 construct": "from tissue; host or cells: rat liver microsomes", "T2 sequence (Q64550 30-535)": "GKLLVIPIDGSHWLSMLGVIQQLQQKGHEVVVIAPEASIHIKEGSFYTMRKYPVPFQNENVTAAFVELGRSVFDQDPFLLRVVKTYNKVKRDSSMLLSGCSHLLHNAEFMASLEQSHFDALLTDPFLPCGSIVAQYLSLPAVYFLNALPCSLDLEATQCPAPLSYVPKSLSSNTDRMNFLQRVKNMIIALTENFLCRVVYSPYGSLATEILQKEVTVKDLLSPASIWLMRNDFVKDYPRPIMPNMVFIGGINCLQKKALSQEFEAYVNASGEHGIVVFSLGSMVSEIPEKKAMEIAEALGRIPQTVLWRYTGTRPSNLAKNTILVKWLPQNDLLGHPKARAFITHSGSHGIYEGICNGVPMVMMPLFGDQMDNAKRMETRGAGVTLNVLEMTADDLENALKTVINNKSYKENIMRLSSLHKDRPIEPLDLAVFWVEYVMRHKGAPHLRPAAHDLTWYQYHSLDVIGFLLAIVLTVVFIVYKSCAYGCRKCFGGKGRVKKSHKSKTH", "experiment": "UGT1A1 inhibition in rat liver microsomes", "type": "in vitro ADME", "details": "value (standard error)"}, "ɣ-H2AX": {"tested_on": "ɣ-H2AX", "experiment": "ɣ-H2AX in ex vivo-stimulated CD45+ lymphocytes", "parameters": "species or system human", "details": "350 mg QD, n = 3, highest tested dose; 3 h post first dose", "excerpt": "(§1) Exploratory objectives were to assess ATR inhibition and DNA damage by measuring phosphorylation of the Ser-139 residue of the histone variant H2AX (ɣ-H2AX) post-treatment in peripheral blood mononuclear cells (cohorts A2 and C), describe the mutational landscape and its relationship to BOR in patients with selected biomarkers (cohort C) and to determine changes in allele frequencies in mutations of interest and their association with clinical benefit (molecular response; cohorts A2 and C). Further details on the definitions of LOF mutations and methods of biomarker collection are described in the Supplementary Materials.\nTo determine H2AX phosphorylation (ɣ-H2AX) in lymphocytes, 100 µL of whole blood was stimulated with 62 µM 4NQO (4-nitroquinoline N-oxide, Sigma, UK) for 1 hour at 37°C. In parallel, 100 µL of whole blood was incubated with 10% DMSO (dimethyl sulfoxide, Sigma, UK) as an unstimulated control sample. The samples were subsequently treated (for 10 minutes at 37°C) with BD Lyse & Fix Solution (Becton Dickinson, USA) and the whole blood cells were permeabilized with ice-cold methanol (90% final concentration) for 30 minutes on ice. […] Cells were then analyzed using a FacsCanto II (Becton Dickinson, USA) collecting 10,000 events. […]"}, "[3]": {"tested_on": "variant allele frequency of somatic alterations in ctDNA", "experiment": "Molecular response: variant allele frequency in ctDNA", "type": "in vivo, human", "details": "for patients with reduced variant allele frequency of the selected biomarkers: cohort C, 250 mg QD", "excerpt": "as §1\nUse of ATRX/DAXX mutations as proxies for ALT-positive tumors enabled use of a single next-generation sequencing test for all biomarkers in this study. Loss of function mutations were defined as loss of the gene locus, a mutation defined as pathogenic in the ClinVar database or a mutation in one of the following categories: splice_acceptor_variant, splice_donor_variant, stop_gained, frameshift_variant, stop_lost or start_lost. Archival formalin-fixed paraffin-embedded tumor biopsies and serial blood samples collected in two 10 mL Streck tubes (Streck) were analyzed for the presence of genetic alterations in tumor DNA and circulating tumor DNA (ctDNA) with the FoundationOne® CDx NGS assay (Foundation Medicine, Cambridge, Massachusetts, US, FoundationOne®CDx Technical Information. https://www.accessdata.fda.gov/cdrh_docs/pdf17/P170019S006C.pdf) and Guardant Health OMNI assay (Guardant, Palo Alto, CA, US. Technical Information https://www.accessdata.fda.gov/cdrh_docs/pdf20/P200010C.pdf), respectively.\nMolecular responses were measured in ctDNA as best-on-treatment change in variant allele frequency of somatic alterations with baseline value ≥0.3%."}, "UGT1A1 [4]": {"target": "UGT1A1 (Canis lupus familiaris, UniProt A0A8I3S535)", "sequence (A0A8I3S535 entry or part of it)": "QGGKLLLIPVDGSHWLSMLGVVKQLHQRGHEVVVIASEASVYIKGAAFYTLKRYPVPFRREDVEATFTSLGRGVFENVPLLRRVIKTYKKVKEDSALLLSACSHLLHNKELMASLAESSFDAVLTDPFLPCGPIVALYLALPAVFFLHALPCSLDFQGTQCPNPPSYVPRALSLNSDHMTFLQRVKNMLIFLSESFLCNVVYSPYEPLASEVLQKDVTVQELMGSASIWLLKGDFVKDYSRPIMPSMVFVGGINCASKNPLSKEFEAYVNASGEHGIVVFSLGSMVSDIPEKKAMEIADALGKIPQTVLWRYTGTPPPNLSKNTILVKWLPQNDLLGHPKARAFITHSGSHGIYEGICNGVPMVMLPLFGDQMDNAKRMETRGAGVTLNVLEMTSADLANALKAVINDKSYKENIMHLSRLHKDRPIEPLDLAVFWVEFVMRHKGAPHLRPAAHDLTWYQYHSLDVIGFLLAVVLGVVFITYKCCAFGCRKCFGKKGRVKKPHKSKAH", "experiment": "UGT1A1 inhibition in dog liver microsomes"}}, "data": [{"compound": "Nc1nn2cc(F)cnc2c1C(=O)Nc1cncc(F)c1N1CCC(C(=O)N2CCN(C3COC3)CC2)CC1", "note": "[gartisertib, Gartisertib]", "values": [{"measurement": "IC50", "setting": "UGT1A1 [1]", "result": 8.36, "unit": "µM"}, {"measurement": "IC50", "setting": "UGT1A1 [2]", "result": "> 50", "unit": "µM"}, {"measurement": "target inhibition of ɣ-H2AX", "setting": "ɣ-H2AX", "result": "Complete target inhibition"}, {"measurement": "patients with TP53-reduced variant allele frequency", "setting": "[3]; cohort A2, 100 mg BID", "result": "0/2"}, {"measurement": "patients with TP53-reduced variant allele frequency", "setting": "[3]; cohort A2, 150 mg QD", "result": "1/2"}, {"measurement": "patients with TP53-reduced variant allele frequency", "setting": "[3]; cohort A2, 250 mg QD (RP2D)", "result": "all six"}, {"measurement": "patients with TP53-reduced variant allele frequency", "setting": "[3]; cohort A2, 350 mg QD", "result": "0/4"}, {"measurement": "patients with TP53-reduced variant allele frequency", "setting": "[3]; cohort A2, patients achieving SD as best response", "result": "4/5"}, {"measurement": "patients with TP53-reduced variant allele frequency", "setting": "[3]; cohort A2, patients with PD", "result": "2/6"}, {"measurement": "patients with reduced variant allele frequency of the selected biomarkers", "setting": "[3]; SD as best response", "result": "all four"}, {"measurement": "patients with reduced variant allele frequency of the selected biomarkers", "setting": "[3]; patients with PD", "result": "2/5"}, {"measurement": "IC50", "setting": "UGT1A1 [4]", "result": "> 50", "unit": "µM"}]}]}
